Values belong to the molecule of their own block, whether it stands above or below them.
Key:
[1] = Caco-2 Permeability Assay; assay type: in vitro ADME, human; conditions: human
Description: The compounds of the invention may be tested for biological activity as MPO inhibitors by methods known to those skilled in the art. In addition, methods such as, for example, a Caco-2 assay, may be used to test the bioavailability of the compounds of the invention. A description of a Caco-2 permeability assay is as follows:
• The Caco-2 monolayer is widely used across the pharmaceutical industry as an in vitro model of the human small intestinal mucosa to predict the absorption of orally administered drugs.^1-4 • The Caco-2 cell model mimics processes such as transcellular transport, paracellular transport, and some aspects of efflux and active transport. • Readout: Papp (A→B), Papp (B→A), Efflux ratio, % Recovery • Controls: with and without Pgp inhibitor; Atenolol, Propanolol, Taxel-1
The Caco-2 cells are cultured to confluency, trypsinized and seeded onto a filter transwell insert at a density of ^˜32,000 cells/well in DMEM cell culture medium. Cells are grown in a humidified atmosphere of 5% CO2 at 37° C. Following an overnight attachment period (24 h after seeding), the cell medium is replaced with fresh medium in both the apical and basolateral compartments every other day. The cell monolayers are used for transport studies 21 days post seeding after measuring the TEER values ([…]). The apical sides and basolateral sides are washed consecutively with HBSS 2.5% (v/v), HEPES (pH 7.4) or HBSS 2.5% (v/v), HEPES 10% (v/v), and Fetal Bovine Serum (pH 7.4) at 37° C. in an incubator under an atmosphere of 5% CO2.
Donor working solution is prepared by dilution of DMSO stock of test article or positive control with transport media to 10 μM.
For A→B directional transport, the donor working solution (with test article or positive control, with or without Pgp inhibitor) is added to the apical (A) compartment and the transport media as receiver working solution is added to the basolateral (B) compartment. For B→A directional transport, the donor working solution (with positive control or test article, with or without Pgp inhibitor) is added to the basolateral (B) compartment and transport media as receiver working solution is added to the apical (A) compartment.
The cells are incubated in a humidified atmosphere of 5% CO2 at 37° C. for 90 minutes.
At the end of the incubation, samples are taken from both donor and receiver compartments and transferred into 96-well assay plates containing internal standard solution (IS) in each well. After centrifugation, the supernatant solutions are transferred to clean 96 well plates and analyzed by LC-MS/MS. The MS detection is performed using a Sciex API 4000 instrument. Each compound is analyzed by reversed phase HPLC.
The parameters Papp (apparent permeability) and efflux ratio are calculated as follows:
Papp=(dQ/dt)×(1/C0)×(1/A)
Efflux ratio=Papp[B→A]/Papp[A→B]
where dQ/dt is the permeability rate, C0 is the initial concentration in the donor compartment, and A is the surface area of the cell monolayer (0.33 cm^2). The Papp value is a rate measured in cm/s. Calculated Papp is ranked as low (<[…]), moderate (1-10×10^−6 cm/s), and high (>[…]).
Comparing the efflux ratios generated in the presence and absence of a Pgp inhibitor identifies whether the test article is a Pgp substrate.
Recovery is calculated as follows:
% Recovery=(Total compound mass in donor and receiver compartments at the end of the incubation/Initial compound mass in the donor compartment)×100.

[2] = Stability in Simulated Gastric Fluid (SGF); assay type: in vitro ADME; parameters: key: % parent compound remaining relative to 0-minute sample
Summary of the method: (§1)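 Stability was tested at 37° C in pepsin-supplemented gastric fluid, pH 1.2, and pancreatin-supplemented intestinal fluid, pH 6.8, using 2 μg/mL final compound over 0–60 minutes. Remaining parent was quantified by LC-MS/MS and expressed as a percentage of time zero.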

[3] = Stability in Simulated Intestinal Fluid (SIF); assay type: in vitro ADME; parameters: key: % parent compound remaining relative to 0-minute sample
Summary of the method: as §1

Plasma Stability = assay type: in vitro ADME, human
Summary of the method: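 Compounds incubated at 1 μM in fresh human plasma for 1 hour at 37° C, then protein-precipitated with acetonitrile/formic acid containing internal standard. Remaining parent measured by LC-MS/MS in triplicate, expressed as percent of control remaining.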

[4] = Caco-2, pH 7.4, Caco-2 monolayer
[5] = % remaining at 1 h in simulated gastric fluid
[6] = % remaining at 1 h in simulated intestinal fluid
[7] = % remaining at 1 h in human plasma
[8] = Caco-2, pH 7.4, Caco-2 monolayer, the 17th table
[9] = % remaining at 1 h in simulated gastric fluid, the 17th table
[10] = % remaining at 1 h in simulated intestinal fluid, the 17th table
[11] = % remaining at 1 h in human plasma, the 17th table
[12] = simulated gastric fluid, at 1 h
[13] = simulated intestinal fluid, at 1 h
[14] = Caco-2, pH 7.4, donor 10 μM, 90 minutes, 37° C., direction not given
[15] = % remaining at 1 h, SGF with pepsin pH 1.2, 2 μg/mL, 37° C.
[16] = % remaining at 1 h, SIF with pancreatin pH 6.8, 2 μg/mL, 37° C.
[17] = % remaining at 1 h, human plasma, 1 μM, 37° C.

SMILES: CSCC[C@H](N)C(=O)NCCCCC(=O)OCn1ccc2c1c(=O)[nH]c(=S)n2CCOC(C)C.O=C(O)C(F)(F)F [Example 31]
Papp at 90 min, 10 µM [1, 4]: 0.325 ×10⁻⁶ cm/s
SGF [2, 5]: 94% remaining
SIF [3, 6]: 85% remaining
human Plasma stability (Plasma Stability; [7]): 1% remaining

Papp at 90 min, 10 µM [1, 8]: 1.67 ×10⁻⁶ cm/s
SGF [2, 9]: 100% remaining
SIF [3, 10]: 95% remaining
human Plasma stability (Plasma Stability; [11]): 99% remaining
SMILES: CC(C)OCCn1c(=S)[nH]c(=O)c2c1ccn2C(=O)Nc1ccccc1 [Example 227]

Papp at 90 min, 10 µM [1, 4]: 31.4 ×10⁻⁶ cm/s
SGF [2, 12]: 88% remaining
SIF [3, 13]: 99% remaining
human Plasma stability (Plasma Stability; human plasma, at 1 h): 99% remaining
SMILES: Cc1ccccc1N(C)C(=O)OCSc1nc(=O)c2c(ccn2COC(=O)N(C)c2ccccc2C)n1CCOC(C)C [Example 243]

Papp at 90 min, 10 µM [1, 4]: 1.88 ×10⁻⁶ cm/s
SGF [2, 5]: 96% remaining
SIF [3, 6]: 94% remaining
human Plasma stability (Plasma Stability; [7]): 1% remaining
SMILES: CC(C)OCCn1c(=S)[nH]c(=O)c2c1ccn2COC(=O)CCCCNC(=O)CNC(=O)OC(C)(C)C [Example 13]

SMILES: CC(C)OCCn1c(=S)[nH]c(=O)c2c1ccn2COC(=O)CCNC(=O)[C@@H]1CCC(=O)N1C.O=C(O)C(F)(F)F [Example 64]
Papp at 90 min, 10 µM [1, 4]: < 0.19 ×10⁻⁶ cm/s
SGF [2, 5]: 98% remaining
SIF [3, 6]: 97% remaining
human Plasma stability (Plasma Stability; [7]): 76% remaining

Papp at 90 min, 10 µM [1, 14]: 7.86 ×10⁻⁶ cm/s
SGF [2, 15]: 44%
SIF [3, 16]: 96%
human Plasma stability (Plasma Stability; [17]): 99%
SMILES: CC(C)OCCn1c(=S)[nH]c(=O)c2c1ccn2C(C)OC(=O)N(C)CC(=O)OC(C)(C)C (stereo not shown) [Example 113, tert-butyl 2-{methyl [(1-{4-oxo-1-[2-(propan-2-yloxy)ethyl]-2-sulfanylidene-1H, 2H,3H,4H,5H-pyrrolo[3,2-d]pyrimidin-5-yl}ethoxy)carbonyl]amino}acetate]

SMILES: CC[C@H](C)[C@H](N)C(=O)NCCC(=O)OCn1ccc2c1c(=O)[nH]c(=S)n2CCOC(C)C.O=C(O)C(F)(F)F [Example 38]
Papp at 90 min, 10 µM [1, 4]: 0.31 ×10⁻⁶ cm/s
SGF [2, 5]: 92% remaining
SIF [3, 6]: 84% remaining
human Plasma stability (Plasma Stability; [7]): 65% remaining

Papp at 90 min, 10 µM [1, 14]: 6.41 ×10⁻⁶ cm/s
SGF [2, 15]: 99%
SIF [3, 16]: 46%
human Plasma stability (Plasma Stability; [17]): 1%
SMILES: CC(C)OCCn1c(=S)[nH]c(=O)c2c1ccn2COC(=O)c1ccccc1 [Example 116, {4-oxo-1-[2-(propan-2-yloxy)ethyl]-2-sulfanylidene-1H, 2H,3H,4H,5H-pyrrolo[3,2-d]pyrimidin-5-yl}methylbenzoate]

Papp at 90 min, 10 µM [1, 8]: 37 ×10⁻⁶ cm/s
SGF [2, 9]: 87% remaining
SIF [3, 10]: 70% remaining
human Plasma stability (Plasma Stability; [11]): 99% remaining
SMILES: CC(C)NC(=O)n1ccc2c1c(=O)[nH]c(=S)n2CCOC(C)C [Example 223]

SMILES: COC(=O)[C@H](CCCCNC(=O)OC(C)(C)C)NC(=O)n1ccc2c1c(=O)[nH]c(=S)n2CCOC(C)C [Example 103, Methyl (2S)-6-{[(tert-butoxy)carbonyl]amino}-2-({4-oxo-1-[2-(propan-2-yloxy)ethyl]-2-sulfanylidene-1H,2H,3H,4H,5H-pyrrolo[3,2-cl]pyrimidine-5-carbonyl}amino)hexanoate]
Papp at 90 min, 10 µM [1, 14]: 13.5 ×10⁻⁶ cm/s
SGF [2, 15]: 96%
SIF [3, 16]: 96%
human Plasma stability (Plasma Stability; [17]): 92%

Papp at 90 min, 10 µM [1, 4]: 10.5 ×10⁻⁶ cm/s
SGF [2, 12]: 57% remaining
SIF [3, 13]: 97% remaining
human Plasma stability (Plasma Stability; human plasma, at 1 h): 100% remaining
SMILES: COc1ccc(N(C)C(=O)OCSc2nc(=O)c3[nH]ccc3n2CCOC(C)C)cc1 [Example 241]

SMILES: CC(C)C[C@@H](N)C(=O)OCSc1nc(=O)c2c(ccn2COC(=O)[C@H](N)CC(C)C)n1CCOC(C)C.O=C(O)C(F)(F)F.O=C(O)C(F)(F)F [Example 325, bis(trifluoroacetic acid) {[5-({[(2R)-2-amino-4-methylpentanoyl]oxy}methyl)-4-oxo-1-[2-(propan-2-yloxy)ethyl]-1H,4H,5H-pyrrolo[3,2-d]pyrimidin-2-yl]sulfanyl}methyl (2R)-2-amino-4-methylpentanoate]
Papp at 90 min, 10 µM ([1]; Caco-2, pH 7.4): 0.908 ×10⁻⁶ cm/s
SGF ([2]; % remaining @ 1 h): 99%@ 1 h
SIF ([3]; % remaining @ 1 h): 3%@ 1 h
human Plasma stability (Plasma Stability; % remaining @ 1 h): 1%@ 1 h

SMILES: CC(C)OCCn1c(=S)[nH]c(=O)c2c1ccn2COC(=O)CCNC(=O)[C@@H](N)CO.O=C(O)C(F)(F)F [Example 44]
Papp at 90 min, 10 µM [1, 4]: < 0.222 ×10⁻⁶ cm/s
SGF [2, 5]: 96% remaining
SIF [3, 6]: 1% remaining
human Plasma stability (Plasma Stability; [7]): 5% remaining

SMILES: CC(C)OCCn1c(=S)[nH]c(=O)c2c1ccn2COC(=O)CCNC(=O)[C@@H](N)[C@@H](C)O.O=C(O)C(F)(F)F [Example 40]
Papp at 90 min, 10 µM [1, 4]: < 0.235 ×10⁻⁶ cm/s
SGF [2, 5]: 100%
SIF [3, 6]: 86% remaining
human Plasma stability (Plasma Stability; [7]): 88% remaining

SMILES: CC(C)OCCn1c(=S)[nH]c(=O)c2c1ccn2COC(=O)[C@H](N)Cc1ccccc1.O=C(O)C(F)(F)F [Example 311, trifluoroacetic acid {4-oxo-1-[2-(propan-2-yloxy)ethyl]-2-sulfanylidene-1H,2H,3H,4H,5H-pyrrolo[3,2-d]pyrimidin-5-yl}methyl (2R)-2-amino-3-phenylpropanoate]
Papp at 90 min, 10 µM ([1]; Caco-2, pH 7.4): 5.44 ×10⁻⁶ cm/s
SGF ([2]; % remaining @ 1 h): 98% @ 1 h
SIF ([3]; % remaining @ 1 h): 7% @ 1 h
human Plasma stability (Plasma Stability; % remaining @ 1 h): 4% @ 1 h

SMILES: CNCC(=O)NCCC(=O)OCn1ccc2c1c(=O)[nH]c(=S)n2CCOC(C)C.O=C(O)C(F)(F)F [Example 56]
Papp at 90 min, 10 µM [1, 4]: 0.144 ×10⁻⁶ cm/s
SGF [2, 5]: 64% remaining
SIF [3, 6]: 1% remaining
human Plasma stability (Plasma Stability; [7]): 0% remaining

SMILES: CC(C)OCCn1c(=S)[nH]c(=O)c2c1ccn2COC(=O)CCNC(=O)CNC(=O)OC(C)(C)C [Example 9, {4-Oxo-1-[2-(propan-2-yloxy)ethyl]-2-sulfanylidene-1H,2H,3H,4H,5H-pyrrolo[3,2-d]pyrimidin-5-yl}methyl 3-(2-{[(tert-butoxy)carbonyl]amino}acetamido)propanoate]
Papp at 90 min, 10 µM [1, 14]: 1.53 ×10⁻⁶ cm/s
SGF [2, 15]: 100%
SIF [3, 16]: 61%
human Plasma stability (Plasma Stability; [17]): 52%

SMILES: CSCC[C@H](N)C(=O)OCCCCC(=O)OCn1ccc2c1c(=O)[nH]c(=S)n2CCOC(C)C.O=C(O)C(F)(F)F [Example 353, trifluoroacetic acid {4-oxo-1-[2-(propan-2-yloxy)ethyl]-2-sulfanylidene-1H,2H,3H,4H,5H-pyrrolo[3,2-d]pyrimidin-5-yl}methyl 5-{[(2S)-2-amino-4-(methylsulfanyl)butanoyl]oxy}pentanoate]
Papp at 90 min, 10 µM [1, 4]: 0.549 ×10⁻⁶ cm/s
SGF ([2]; simulated gastric fluid, remaining at 1 h): 33% remaining
SIF ([3]; simulated intestinal fluid, remaining at 1 h): 66% remaining
human Plasma stability (Plasma Stability; human plasma, remaining at 1 h): 3% remaining

SMILES: CC(C)OCCn1c(=S)[nH]c(=O)c2c1ccn2COC(=O)CCCCNC(=O)C1CCCN1C(=O)OC(C)C.O=C(O)C(F)(F)F (stereo not shown) [Example 67]
Papp at 90 min, 10 µM [1, 4]: 2.84 ×10⁻⁶ cm/s
SGF [2, 5]: 92% remaining
SIF [3, 6]: 93% remaining
human Plasma stability (Plasma Stability; [7]): 57% remaining

From US20240067651A1 (Biohaven Therapeutics Ltd., priority 2019, published 2024)
